{
  "source": "patent US12697325B2",
  "about": "(TENNOR THERAPEUTICS (SUZHOU) LIMITED, priority 2021, dated 2026)",
  "assay": "Stability of sulbactam sodium and avibactam sodium in different pH buffers (HPLC purity)",
  "format": "physicochemical",
  "conditions": "20° C., 24 h; for Purity in pH buffer (monomer): purity 100% at 0 h, alone; for Purity in pH buffer (in mixture): mixture 4:1 (sulbactam sodium 1 mg/mL, avibactam sodium 0.25 mg/mL)",
  "data": [
    {"smiles": "NC(=O)[C@@H]1CC[C@@H]2CN1C(=O)N2OS(=O)(=O)O", "note": "[Avibactam, [(2S,5R)-2-carbamoyl-7-oxo-1,6-diazabicyclo [3.2.1]oct-6-yl] bisulfate]", "values": [
      {"measurement": "Purity in pH buffer (monomer)", "setting": "pH 4.0 buffer", "result": "−24.20", "unit": "%"},
      {"measurement": "Purity in pH buffer (in mixture)", "setting": "pH 4.0 buffer", "result": "−23.74", "unit": "%"},
      {"measurement": "Purity in pH buffer (monomer)", "setting": "pH 4.5 buffer", "result": "−2.31", "unit": "%"},
      {"measurement": "Purity in pH buffer (in mixture)", "setting": "pH 4.5 buffer", "result": "−1.42", "unit": "%"},
      {"measurement": "Purity in pH buffer (monomer)", "setting": "pH 5.0 buffer", "result": "−0.71", "unit": "%"},
      {"measurement": "Purity in pH buffer (in mixture)", "setting": "pH 5.0 buffer", "result": "−0.99", "unit": "%"},
      {"measurement": "Purity in pH buffer (monomer)", "setting": "pH 5.5 buffer", "result": "−0.77", "unit": "%"},
      {"measurement": "Purity in pH buffer (in mixture)", "setting": "pH 5.5 buffer", "result": "−0.54", "unit": "%"},
      {"measurement": "Purity in pH buffer (monomer)", "setting": "pH 6.0 buffer", "result": "−1.75", "unit": "%"},
      {"measurement": "Purity in pH buffer (in mixture)", "setting": "pH 6.0 buffer", "result": "−1.76", "unit": "%"},
      {"measurement": "Purity in pH buffer (monomer)", "setting": "pH 7.3 buffer", "result": "−0.81", "unit": "%"},
      {"measurement": "Purity in pH buffer (in mixture)", "setting": "pH 7.3 buffer", "result": "−1.06", "unit": "%"},
      {"measurement": "Purity in pH buffer (monomer)", "setting": "pH 8.0 buffer", "result": "−8.87", "unit": "%"},
      {"measurement": "Purity in pH buffer (in mixture)", "setting": "pH 8.0 buffer", "result": "−8.81", "unit": "%"}
    ]}
  ]
}
